Data as given in the METLIN SMRT retention time set (Domingo-Almenara et al. 2019).

Test: gradient 5% acetonitrile 3 min, to 50% in 2 min, to 85% in 15 min, held 3 min, 100 µL/min
Settings: column: Zorbax Extend-C18 2.1 x 50 mm; eluents: water / acetonitrile, 0.1% formic acid
How it was run: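 The mobile phases were water and acetonitrile, each with 0.1% formic acid, pumped at 100 μL/min through a Zorbax Extend-C18 column (2.1 × 50 mm, 1.8 μm). Pure standards were injected as mixtures of ~100 molecules and detected by a quadrupole time-of-flight mass spectrometer in positive and negative ionization mode. Retention time came from computationally picked adduct peaks, each inspected by hand.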

| RP-LC retention time | SMILES |
| --- | --- |
| 1030 s | CCCn1c(=O)sc2cc(S(=O)(=O)N3CCC(C(=O)Nc4ccc(F)c(F)c4)CC3)ccc21 |
| 978 s | Cc1nc(-c2cc(S(=O)(=O)N(Cc3ccccc3)C(C)C)c(C)s2)sc1C |
| 583 s | CCOc1ccc(C2=NC3(CCN(CC)CC3)NC(c3ccccc3O)C2)cc1 (stereo not given) |
| 762 s | CCCCNC(=O)CCc1[nH]c(C)c(C(=O)OCC)c1C |
| 606 s | COc1ccc(CCC(=O)NC(C)C(=O)N2CCN(c3ccccn3)CC2)cc1 (stereo not given) |
| 790 s | Cn1nc(C(=O)NCc2ccc(F)cc2)c2c1CCN(C(=O)c1ccc(Br)o1)C2 |
| 624 s | C=CCSc1nnc(Cc2cc(=O)[nH]c(=O)[nH]2)n1-c1ccc(Cl)cc1 |
| 567 s | CCCn1cc(C(=O)N2CCC(N3CCCCC3)CC2)c2cccnc21 |
| 969 s | COc1ccc(N2CC(c3noc(-c4cc(F)cc(F)c4)n3)CC2=O)cc1 (stereo not given) |
| 993 s | Cc1ccc(NC(=O)N2CCCC(C)(C(=O)NCc3ccccc3)C2)c(Cl)c1 (stereo not given) |
| 673 s | O=C(NC1CCCCC1)C1CCN(C(=O)c2cccn2-c2cccnc2)CC1 |
| 1160 s | Cc1ccc(-n2ccnc(NC(=O)Nc3ccc(F)c(Cl)c3)c2=O)cc1C |
| 642 s | CSc1nc(NCCN(C)C)c(C#N)c(-c2ccccc2)n1 |
| 677 s | CC(=O)Nc1ccc(NC(=O)c2ccc3nc(-c4ccc(Cl)cc4)cn3c2)cc1 |
| 706 s | COCCN(CCOC)C(=O)C12CCC(C)(C(=O)C1)C2(C)C (stereo not given) |
| 1070 s | COc1ccc(-c2ncc3c(n2)CCN(S(=O)(=O)c2cccc(C)c2)C3)cc1 |
| 956 s | Cc1cc(Cl)ccc1NC(=O)c1cnc(-c2ccccc2)nc1-c1ccncc1 |
| 997 s | CCS(=O)(=O)N1CC(=O)N(c2ccc(F)cc2C)C(C)(C(=O)NC2CCCCCCC2)C1 (stereo not given) |
| 706 s | CCNC(=O)c1cnn(-c2cc(-c3nc(C)no3)ccn2)c1C |
| 618 s | N#Cc1ccc(CN2C[C@@H]3C(=O)N(CCN4CCc5ccccc5C4)C(=O)[C@@H]3C2)cc1 |
| 711 s | Cc1ccc(CNS(=O)(=O)c2cc3n(c2)CCCN(C)C3=O)cc1 |
| 1240 s | CC(C)(C)c1cc(C(=O)NC2CCCCC2)nc2ccnn12 |
| 768 s | CC(C)n1cnc(S(=O)(=O)N2CCCC(C(=O)Nc3ccccc3)C2)c1 (stereo not given) |
| 766 s | Cc1noc(/C=C\c2ccc(S(=O)(=O)NC3CC3)cc2)c1NC(=O)C1CC1 |
| 722 s | CC(C)(C)NC(=O)NC1CCN(c2ccccc2)C1=O (stereo not given) |

| RP-LC retention time | SMILES |
| --- | --- |
| 1010 s | Cc1ccc(-c2csc(NC(=O)Cn3c(=O)sc4ccccc43)n2)cc1 |
| 1020 s | CC(C)Cn1ccc2c(cc(C(=O)Nc3ccc(OC(F)(F)F)cc3)n2C)c1=O |
| 1060 s | Cc1c(Cl)cccc1Nc1ccccc1C(=O)O |
| 1160 s | Cc1ccc(S(=O)(=O)c2cnc(N3CCN(c4ccccn4)CC3)nc2N)cc1 |
| 720 s | CCN1CCCn2cc(S(=O)(=O)Nc3ccccc3C)cc2C1=O |
| 942 s | CCc1ccc(N2C=C(C(=O)OC)S(=O)(=O)c3ccccc32)cc1 |
| 1190 s | CCCN1C(=O)COc2ccc(-c3noc(-c4cccc(OC)c4)n3)cc21 |
| 858 s | O=C(NCc1nn(Cc2ccccc2)c2ccccc12)c1cnccn1 |
| 636 s | COc1ccc(OC)c(S(=O)(=O)N2CCCC(C(=O)NCCO)C2)c1 (stereo not given) |
| 566 s | CCc1cc(=O)n(CC(=O)NCc2ccccc2)c(N)n1 |
| 686 s | COc1ccc(-c2n[nH]c3c2C(c2cccc(O)c2)N(C)C3=O)cc1 (stereo not given) |
| 1290 s | CCOc1cc(-c2nc(C3CC(=O)N(c4ccc(F)c(Cl)c4)C3)no2)cc(OCC)c1OCC (stereo not given) |
| 843 s | O=C(Cc1ccc(Cl)s1)Nc1nnc(-c2cc3ccccc3o2)o1 |
| 543 s | O=C(c1cccc(-n2cnnn2)c1)N1CCN(Cc2nc3ccccc3[nH]2)CC1 |
| 650 s | CC(C)c1nc2c(c(=O)n1CC(=O)NCc1cccs1)CN(Cc1ccccc1)CC2 |
| 692 s | COc1ccc(NC(=O)N2CCN(c3cc(C)nc(N4CCCC4)n3)CC2)c(C)c1 |
| 592 s | COc1ccc(-c2nc(NCCN(C)C3CCCCC3)c3ccccc3n2)cc1 |
| 906 s | CC(C)CC(=O)Nc1cnc(-c2ccccc2)nc1 |
| 696 s | O=C(c1ccsc1)N1CC(c2nc(CCOCC3CCOCC3)no2)C1 |
| 765 s | O=C(Nc1cccc(C(F)(F)F)c1)N1CCCC1c1nncn1C1CCCC1 (stereo not given) |
| 764 s | CCOC(=O)c1cnc2nc(C)ccc2c1Nc1cc(F)ccc1Cl |
| 1130 s | CCOc1cccc(C2c3[nH]c4ccccc4c3CCN2C(=O)c2ccco2)c1 (stereo not given) |
| 944 s | CCc1ccccc1NC(=O)C1CCN(S(C)(=O)=O)c2cc(Cl)ccc2O1 (stereo not given) |
| 1000 s | COc1cccc2sc(N3CCc4ccccc4C3)nc12 |
| 584 s | Cn1cc(CCN2CCC(C(=O)NCc3ccc4c(c3)OCO4)CC2)c2cccnc21 |

Second part, the molecule before the results:

| SMILES | RP-LC retention time |
| --- | --- |
| O=S(=O)(NCC1CCN(Cc2ccco2)CC1)c1ccc2c(c1)CCCC2 | 603 s |
| Cc1noc(/C=C\c2ccc(S(=O)(=O)N3CCCC3)cc2)c1NC(=O)C1CC1 | 837 s |
| CCCc1ccc(S(=O)(=O)N2CCC(C(=O)NCc3csc(-c4ccccc4)n3)CC2)cc1 | 1090 s |
| COc1ncccc1CNC(=O)CCc1ccccc1 | 738 s |
| O=C(NCc1csc(-c2ccccc2)n1)[C@H]1CCCN1C(=O)c1ccc(Br)cc1 | 866 s |
| Cc1nc(N2CCOCC2)c2c(C(=O)Nc3ccccc3F)c(C)oc2n1 | 805 s |
| COc1ccc(CN(C)Cc2cc(=O)c3cc(C)ccc3[nH]2)cc1 | 603 s |
| CCc1cccc(NC(=O)CN2C(=O)CCc3cc(S(=O)(=O)N4CCCCC4C)ccc32)c1 (stereo not given) | 998 s |
| Cc1nn(C)c(C)c1S(=O)(=O)N1[C@H]2CC[C@@H]1c1cnc(-c3ccc(F)cc3)nc1C2 | 924 s |
| O=C(Cc1noc2ccccc12)N1CCN(c2cc(-c3ccccc3)ncn2)CC1 | 745 s |
| Cc1nc(C2(C)CCN(S(=O)(=O)c3ccc(C(C)(C)C)cc3)CC2)no1 | 1080 s |
| O=C(c1ccccc1F)N1N=C(c2cccs2)CC1c1ccc2nccnc2c1 (stereo not given) | 791 s |
| O=C1CC(c2nc(-c3ccccn3)no2)CN1c1ccc2c(c1)OCO2 (stereo not given) | 707 s |
| COc1ccc(Cc2cnc(NC(=O)C3Cc4ccccc4C(=O)O3)s2)cc1 (stereo not given) | 819 s |
| Cc1cc(N2CCC(NC(=O)Nc3ccc(F)cc3F)C2=O)ccc1F (stereo not given) | 845 s |
| COc1ccc(N2CCn3c2nn(CC(=O)NCc2ccco2)c(=O)c3=O)cc1 | 634 s |
| O=C1NCCOCCN(S(=O)(=O)c2cccc3cccnc23)[C@@H]2CCCC[C@H]12 | 735 s |
| COc1ccccc1C(=O)Nc1ccc2c(c1)Sc1ncccc1C(=O)N2C | 810 s |
| CN(C(=O)C1CCN(S(=O)(=O)c2ccc3c(c2)sc(=O)n3C)CC1)C1CCCCC1 | 910 s |
| Cc1ccc(CC(=O)N2CCN(c3cc(-c4cccs4)[nH]n3)CC2)cc1 | 758 s |

| SMILES | RP-LC retention time |
| --- | --- |
| Cc1c(Cl)cccc1N1CC(c2nc3ccccc3[nH]2)CC1=O (stereo not given) | 577 s |
| O=S(=O)(CCc1ccccc1)N1CCN(c2ccc3nncn3n2)CC1 | 664 s |
| COc1ccc(OC(=O)c2cn(CC(C)C)c(=O)c3ccccc23)cc1 | 1180 s |
| O=C(CN1CCN(Cc2ccccc2F)C1=O)NCCc1cccs1 | 778 s |
| COCCN1CCn2cc(S(=O)(=O)Nc3ccc(F)cc3Cl)cc2C1=O | 725 s |
| COc1ccccc1-c1csc(-c2nnn(-c3ccc(F)cc3)c2N)n1 | 1070 s |
| O=C(Cn1nc2c(N3CCN(c4ccccc4)CC3)nccn2c1=O)Nc1ccccc1Cl | 928 s |
| CN(C(=O)CN1C(=O)NC2(CCCCC2)C1=O)c1ccccc1 | 740 s |
| CCN(CC)c1ncnc2c(-c3ccccc3)cn(CC(=O)NCCc3ccc(OC)c(OC)c3)c12 | 726 s |
| CCn1cc(-c2nc(-c3ccc(OCC(C)C)cc3)no2)c(=O)c2cc(F)c(N3CCOCC3)cc21 | 917 s |
| CN(CCc1noc(-c2ccc(C(=O)N3CCCC3)cc2)n1)C(=O)c1ccccc1Br | 736 s |
| O=C(c1ccccc1Br)N1CCCN(C(=O)C2CC2)c2ccccc21 | 746 s |
| CCC(CC)NC(=O)c1c(OCC2CC2)cc(=O)n2c1CCCCC2 | 754 s |
| COC(=O)c1c(C)[nH]c(C(=O)N2CCC(CC(=O)NCCC(C)N3CCCC3)CC2)c1C (stereo not given) | 578 s |
| CCOC(=O)c1cccc(NC(=O)C2CCCN(c3ccc(=O)n(-c4ccc(F)cc4)n3)C2)c1 (stereo not given) | 933 s |
| Cc1ccc(N2CC(c3nc(-c4ccc5c(c4)OCO5)no3)CC2=O)cc1Cl (stereo not given) | 1050 s |
| CN(C)CCNCc1ccc(-c2cccc(Cl)c2)o1 | 570 s |
| Cc1cccc2nc(-c3ccc(Cl)cc3)c(Nc3ccc4c(c3)OCCO4)n12 | 701 s |
| Cc1nc(-c2cnccn2)nc2c1CCC(=O)N2CCC1=CCCCC1 | 876 s |
| CCOC(=O)c1c(C)c(C(=O)C(C)N(CC)C(=O)c2ccccc2Cl)c(C)n1CC (stereo not given) | 1050 s |
